This passage reports GI50 and TGI results from PubChem BioAssay (NCI).

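Cells were grown in 96-well plates and exposed to each compound for 48 hours at five concentrations; endpoints were interpolated linearly between bracketing concentrations, or set to the highest concentration if not reached. At the GI50, growth is halved. TGI: total growth inhibition.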

Test systems include OVCAR-8 ovarian; BT-549 breast; NCI/ADR-RES ovarian; HOP-92 NSCLC; LOX IMVI melanoma; SNB-75 CNS; CAKI-1 renal; MOLT-4 leukemia; NCI-H23 lung; SNB-19 CNS.
Holding throughout (experiment): NCI anticancer screen, dose series, 48 h

As to `CCCCCCCC(=O)Nc1nc2[nH]c(CN3CCN(Cc4cccc(I)c4)CC3)c(CN3CCN(Cc4cccc(I)c4)CC3)c2c(=O)[nH]1`, the GI50 with OVCAR-8 ovarian is 1.04 µM; with BT-549 breast, 0.885 µM; with NCI/ADR-RES ovarian, 0.882 µM; in the assay on HOP-92 NSCLC, 0.668 µM; in the assay on LOX IMVI melanoma, 0.762 µM; in the assay with SNB-75 CNS it was 0.691 µM. Besides, the GI50 is 0.816 µM in the assay with CAKI-1 renal, 0.934 µM in the assay with MOLT-4 leukemia, 0.92 µM in the assay on NCI-H23 lung and 0.858 µM in the assay with SNB-19 CNS. The TGI with OVCAR-8 ovarian was 2.25 µM; with BT-549 breast it was 1.83 µM; in the assay with NCI/ADR-RES ovarian it was 1.74 µM; in the assay on HOP-92 NSCLC it was 1.4 µM; in the assay on LOX IMVI melanoma, 1.44 µM; with SNB-75 CNS, 1.35 µM. The TGI came out at 1.49 µM with CAKI-1 renal, 2.59 µM in the assay with MOLT-4 leukemia, 1.86 µM in the assay with NCI-H23 lung and 1.62 µM in the assay on SNB-19 CNS.

As to `CCC(CO)Nc1nc(NCc2ccccc2)c2n[nH]c(C(C)C)c2n1` (stereo not given), the GI50 is 8.98 µM in the assay on OVCAR-8 ovarian; 10.7 µM in the assay with BT-549 breast; 16.7 µM with NCI/ADR-RES ovarian; 3.75 µM with HOP-92 NSCLC; 7.55 µM in the assay on LOX IMVI melanoma; 11.4 µM with SNB-75 CNS. For the same compound, the GI50 in the assay on CAKI-1 renal is 3 µM; in the assay on MOLT-4 leukemia it was 11.1 µM; in the assay on NCI-H23 lung it was 12.3 µM; with SNB-19 CNS it was 15.8 µM. Moreover, the TGI stood at 31.1 µM in the assay with OVCAR-8 ovarian; 23.7 µM in the assay with BT-549 breast; 39.2 µM with NCI/ADR-RES ovarian; 19.5 µM in the assay on HOP-92 NSCLC; 20.9 µM in the assay on LOX IMVI melanoma; 25.4 µM in the assay with SNB-75 CNS. The TGI in the assay on CAKI-1 renal is 16.2 µM; in the assay with MOLT-4 leukemia it was 46.3 µM; in the assay with NCI-H23 lung it was 31.2 µM; in the assay on SNB-19 CNS, 30.5 µM.

`N#Cc1c(N)c(C(=O)c2ccc3c(c2)OCCO3)n2c1CCCC2`: the GI50 was 4.21 µM in the assay with OVCAR-8 ovarian; 4.8 µM in the assay with BT-549 breast; 1.12 µM in the assay on NCI/ADR-RES ovarian; 2.33 µM with HOP-92 NSCLC; 6.92 µM in the assay with LOX IMVI melanoma; 1.8 µM in the assay with SNB-75 CNS. For the same compound, the GI50 is 3.18 µM with CAKI-1 renal, 4.19 µM with MOLT-4 leukemia, 4.64 µM in the assay with NCI-H23 lung and 6.3 µM in the assay with SNB-19 CNS. In addition, the TGI in the assay on OVCAR-8 ovarian was over 100 µM; in the assay on BT-549 breast, over 100 µM; with NCI/ADR-RES ovarian, over 52.5 µM; in the assay on HOP-92 NSCLC, over 100 µM; in the assay with LOX IMVI melanoma, over 100 µM; in the assay on SNB-75 CNS, 7.48 µM. Besides, the TGI in the assay with CAKI-1 renal, in the assay on MOLT-4 leukemia, with NCI-H23 lung and with SNB-19 CNS was over 100 µM throughout.

Turning to `C=C[C@@H]1CCC/C=C/[C@@H]2C[C@H](O)C[C@H]2[C@H](O)/C=C/C(=O)O1`, the GI50 was 0.44 µM in the assay with OVCAR-8 ovarian; 0.543 µM in the assay on BT-549 breast; 0.365 µM with NCI/ADR-RES ovarian; 0.702 µM in the assay with HOP-92 NSCLC; 0.269 µM in the assay with LOX IMVI melanoma; 0.397 µM in the assay with SNB-75 CNS. The GI50 in the assay on CAKI-1 renal was 1.89 µM; in the assay on MOLT-4 leukemia it was 1.16 µM; with NCI-H23 lung, 0.475 µM; with SNB-19 CNS it was 1.45 µM. In addition, the TGI in the assay with OVCAR-8 ovarian was over 100 µM; in the assay with BT-549 breast, over 37.1 µM; with NCI/ADR-RES ovarian, 11.6 µM; with HOP-92 NSCLC it was 5.95 µM; with LOX IMVI melanoma, 0.815 µM; in the assay with SNB-75 CNS it was over 100 µM. For the same compound, the TGI in the assay on CAKI-1 renal is over 50.3 µM; in the assay on MOLT-4 leukemia, over 31.4 µM; in the assay with NCI-H23 lung it was 16.6 µM; in the assay with SNB-19 CNS, over 100 µM.

In the case of `COc1ccc(NC(=O)c2ccc(C(F)(F)F)nc2Nc2ccc(Cl)cc2C)cc1Cl`, the GI50 is 7.67 µM in the assay with OVCAR-8 ovarian; 4.88 µM with BT-549 breast; 3.17 µM in the assay with NCI/ADR-RES ovarian; 2.9 µM with HOP-92 NSCLC; 3.96 µM with LOX IMVI melanoma; 6.47 µM in the assay on SNB-75 CNS. Moreover, the GI50 in the assay on CAKI-1 renal is 4.41 µM; with MOLT-4 leukemia, 1.56 µM; in the assay with NCI-H23 lung, 3.09 µM; in the assay on SNB-19 CNS it was 5.45 µM. The TGI in the assay on OVCAR-8 ovarian amounted to 24.3 µM; in the assay on BT-549 breast it was 18.6 µM; in the assay on NCI/ADR-RES ovarian, 14.9 µM; in the assay with HOP-92 NSCLC, 6.79 µM; with LOX IMVI melanoma it was 13.5 µM; in the assay with SNB-75 CNS, 23.9 µM. Besides, the TGI was 18.9 µM in the assay with CAKI-1 renal, 4.93 µM in the assay on MOLT-4 leukemia, 15.1 µM in the assay with NCI-H23 lung and 19.7 µM with SNB-19 CNS.

In the case of `Oc1cccc2ccc(SSc3ccc4cccc(O)c4n3)nc12`, the TGI with OVCAR-8 ovarian turned out to be 36.3 µM; in the assay with BT-549 breast, 37.6 µM; in the assay with NCI/ADR-RES ovarian, 65.6 µM; with HOP-92 NSCLC, 55.9 µM; with LOX IMVI melanoma, 33.8 µM; in the assay on SNB-75 CNS, 34.9 µM. Further, the TGI is 37.3 µM in the assay on CAKI-1 renal, over 100 µM in the assay on MOLT-4 leukemia, 31.2 µM in the assay with NCI-H23 lung and over 100 µM with SNB-19 CNS.

`CCOc1ccc(Nc2ccnc3cc(Cl)ccc23)cc1`: the GI50 with OVCAR-8 ovarian was 79.9 µM; in the assay on BT-549 breast, over 100 µM; in the assay with NCI/ADR-RES ovarian, over 100 µM; with HOP-92 NSCLC it was 16.1 µM; with LOX IMVI melanoma, 41.9 µM; with SNB-75 CNS it was 17 µM. For the same compound, the GI50 with CAKI-1 renal, in the assay on MOLT-4 leukemia, with NCI-H23 lung and in the assay on SNB-19 CNS was over 100 µM in each case. Further, the TGI is over 100 µM in the assay on OVCAR-8 ovarian; over 100 µM with BT-549 breast; over 100 µM in the assay on NCI/ADR-RES ovarian; over 100 µM in the assay on HOP-92 NSCLC; over 100 µM in the assay with LOX IMVI melanoma; 51.2 µM in the assay on SNB-75 CNS. Besides, the TGI in the assay with CAKI-1 renal, in the assay on MOLT-4 leukemia, with NCI-H23 lung and with SNB-19 CNS was over 100 µM in each case.

On to `O=c1cccccc1O`, for which the TGI in the assay with OVCAR-8 ovarian, in the assay on BT-549 breast, with NCI/ADR-RES ovarian, in the assay with HOP-92 NSCLC, in the assay on LOX IMVI melanoma and in the assay with SNB-75 CNS was over 100 µM in each case. Moreover, the TGI in the assay on CAKI-1 renal, in the assay on MOLT-4 leukemia, in the assay with NCI-H23 lung and in the assay with SNB-19 CNS was over 100 µM in each case.

In the case of `FC(F)(F)c1cccc(Oc2ccc(Nc3ncnc4ccc(OCCCN5CCOCC5)cc34)cc2Cl)c1`, the GI50 in the assay with OVCAR-8 ovarian is 3.22 µM; in the assay with BT-549 breast, 3.09 µM; in the assay with NCI/ADR-RES ovarian it was 2.82 µM; in the assay with HOP-92 NSCLC, 1.76 µM; in the assay on LOX IMVI melanoma, 1.71 µM; with SNB-75 CNS, 1.45 µM. The GI50 is 1.34 µM in the assay on CAKI-1 renal, 1.97 µM in the assay on MOLT-4 leukemia, 3.19 µM in the assay with NCI-H23 lung and 2.34 µM with SNB-19 CNS. Moreover, the TGI with OVCAR-8 ovarian came to 21.2 µM; with BT-549 breast it was 16.7 µM; in the assay on NCI/ADR-RES ovarian it was 13.8 µM; with HOP-92 NSCLC it was 7.82 µM; in the assay with LOX IMVI melanoma, 3.45 µM; in the assay on SNB-75 CNS it was 7.33 µM. In addition, the TGI turned out to be 6.62 µM with CAKI-1 renal, 6.41 µM in the assay on MOLT-4 leukemia, 13.4 µM with NCI-H23 lung and 7.15 µM with SNB-19 CNS.

As for `Cc1ccc(NC(=O)CCc2nnc3s/c(=C\C=C\c4ccccc4)c(=O)n23)cc1`, the TGI in the assay with OVCAR-8 ovarian was 77.4 µM; in the assay with BT-549 breast, over 100 µM; in the assay on NCI/ADR-RES ovarian, over 78.6 µM; with HOP-92 NSCLC it was over 100 µM; in the assay with LOX IMVI melanoma, over 86.8 µM; in the assay on SNB-75 CNS it was over 100 µM. In addition, the TGI was over 100 µM in the assay with CAKI-1 renal, 79.8 µM with MOLT-4 leukemia, over 100 µM with NCI-H23 lung and over 100 µM in the assay on SNB-19 CNS.

Turning to `Cn1cc(-c2ncnc3ccc(-c4cnc(Cl)c(NS(C)(=O)=O)c4)cc23)c2ccccc21`, the GI50 with OVCAR-8 ovarian was 1.72 µM; in the assay on BT-549 breast it was 0.566 µM; in the assay on NCI/ADR-RES ovarian it was 1.24 µM; in the assay with HOP-92 NSCLC, 0.0408 µM; with LOX IMVI melanoma, 0.48 µM; in the assay on SNB-75 CNS it was 0.127 µM. Also, the GI50 in the assay on CAKI-1 renal is 0.415 µM; with MOLT-4 leukemia it was 0.491 µM; in the assay on NCI-H23 lung it was 0.903 µM; with SNB-19 CNS, 1.67 µM. Also, the TGI with OVCAR-8 ovarian was over 100 µM; in the assay with BT-549 breast it was 7.68 µM; with NCI/ADR-RES ovarian, 30.3 µM; in the assay with HOP-92 NSCLC, 0.634 µM; in the assay on LOX IMVI melanoma, 11.8 µM; in the assay on SNB-75 CNS, 1.98 µM. In addition, the TGI in the assay with CAKI-1 renal was 27 µM; in the assay on MOLT-4 leukemia, 4.89 µM; in the assay with NCI-H23 lung, over 52 µM; in the assay with SNB-19 CNS, 23.4 µM.

Consider `O=C1NN(C(=O)c2ccccc2)C(c2ccc(Cl)c(Cl)c2)=C/C1=C\c1ccccc1[N+](=O)[O-]`, for which the GI50 with OVCAR-8 ovarian is 2.63 µM; in the assay on BT-549 breast, 1.18 µM; in the assay on NCI/ADR-RES ovarian, 2.29 µM; in the assay on HOP-92 NSCLC it was 1.43 µM; with LOX IMVI melanoma, 1.14 µM; in the assay on SNB-75 CNS, 1.27 µM. The GI50 is 2.27 µM in the assay on CAKI-1 renal, 2.04 µM with MOLT-4 leukemia, 1.04 µM with NCI-H23 lung and 0.339 µM in the assay on SNB-19 CNS. For the same compound, the TGI in the assay on OVCAR-8 ovarian is over 6.75 µM; with BT-549 breast it was 5.4 µM; in the assay on NCI/ADR-RES ovarian, over 6.75 µM; with HOP-92 NSCLC, over 6.75 µM; in the assay on LOX IMVI melanoma it was 3.49 µM; in the assay on SNB-75 CNS, over 6.75 µM. Also, the TGI with CAKI-1 renal was over 6.75 µM; in the assay with MOLT-4 leukemia it was over 6.75 µM; with NCI-H23 lung, 6.5 µM; with SNB-19 CNS, over 6.75 µM.
